Active and inactive are the calls of the source. The rule behind the calls is not given here.
Molecular target: Toxin B (TcdB) glycohydrolase, Clostridioides difficile 630
Experiment: TcdB glycohydrolase inhibitors, dose response, biochemical, cherry-pick, plate reader (AID 720512)
Settings: recombinant TcdB glycohydrolase activity

| SMILES | activity change, negative = inhibition (at 19.5 µM (top of the series)) | further results |
| --- | --- | --- |
| COc1ccc(-c2ccc3c(c2)[C@@H]2[C@@H](CCN2C(=O)CN2CCOCC2)[C@H](CO)N3)cc1 | inactive | – |
| C[C@H](CO)N1C[C@H](C)[C@@H](CN(C)C(=O)Nc2ccc(C(F)(F)F)cc2)Oc2c(NS(=O)(=O)c3cccs3)cccc2C1=O | – | AC50: > 39 µM (inactive) |
| Cc1ccc(S(=O)(=O)Oc2cccc(/C=N/n3cnnc3)c2)cc1 | inactive | – |
| CN1C(=O)CSc2ccc(NC(=O)N3CCc4ccccc43)cc21 | inactive | – |
| COC(=O)C1=C(c2ccc(F)cc2OCc2ccccc2)C[C@@H]2CC[C@H]1N2C(=O)N1CCCC1 | inactive | – |
| O=C(C[C@H]1CC[C@@H]2[C@H](COC[C@@H](O)CN2C(=O)Nc2ccc(Cl)c(Cl)c2)O1)NCc1ccncc1 | inactive | – |
| Cc1ccc(S(=O)(=O)N2CC(CO)=CCC2c2ccccc2)cc1 (centres undefined) | inactive | – |
| O=c1onc(-c2ccccc2)n1Cc1ccc([N+](=O)[O-])cc1 | inactive | – |
| COC(=O)C1=C(c2ccc(OCc3ccccc3)cc2)C[C@@H]2CC[C@H]1N2C(=O)NCCCc1ccccc1 | inactive | – |
| CCc1ccccc1NC(=O)CN1CCN(CC(=O)NCc2ccc(Cl)cc2)CC1 | inactive | – |
| COc1ccc(-c2ccc3c(c2)[C@H]2[C@H](CCN2C(=O)C2CC2)[C@@H](CO)N3C)cc1 | – | AC50: > 39 µM (inactive) |
| O=C(O)c1c(C(=O)O)c(-c2ccc(Br)cc2)n2c1CSC2 | inactive | – |
| COc1ccc(C2=NS(=O)(=O)N(C)C(C(=O)N3CCOCC3)=C2)cc1 | inactive | – |
| CCN1CCN(S(=O)(=O)c2ccc3[nH]c(=O)oc3c2)CC1 | inactive | – |
| O=C(CSc1ccccc1)Nc1cc(S(=O)(=O)N2CCOCC2)ccc1N1CCOCC1 | inactive | – |
| Cc1cc(C)cc(N=C2NC(=O)CS2)c1 | inactive | – |
| COc1cccc(/C=C/c2onc(C)c2S(=O)(=O)N2CCC(C(=O)NC3CCCCCC3)CC2)c1 | inactive | – |
| Nc1nc(Nc2ccccc2)n[nH]1 | inactive | – |
| Nn1c(SCc2ccccc2F)nnc1-c1ccccn1 | inactive | – |
| CNC(=O)C[C@@H]1CC[C@@H]2[C@H](COc3ccc(NS(=O)(=O)c4ccccc4C)cc3C(=O)N2C)O1 | inactive | – |
| Cc1ccc(C(=O)NC(=O)OCCn2c(C)cnc2[N+](=O)[O-])cc1 | inactive | – |
| COc1ccccc1-n1c(SCC(=O)O)nc2c(sc(=S)n2-c2ccc(Cl)c(C)c2)c1=O | inactive | – |
| CSc1nc(Cl)cc(Nc2ccc(O)cc2)n1 | inactive | – |

| SMILES | activity change, negative = inhibition (at 19.5 µM (top of the series)) | further results |
| --- | --- | --- |
| CN1CC(=O)N/C1=N\C(=O)Nc1ccc(O)cc1 | inactive | – |
| CCCCc1[nH]c(=O)c(C#N)c2c1CCCC2 | inactive | – |
| Cc1cc(N/N=C/c2ccc(O)cc2)c2cccc(C)c2n1 | – | AC50: > 39 µM (inactive) |
| NC(=O)Nc1ccc(Nc2ccccc2)cc1 | inactive | – |
| Cc1ccc(S(=O)(=O)N2CCOCC2)cc1C(=O)NCCCN1CCCC1=O | inactive | – |
| Cc1cccc(-n2nnc(C(=O)NCc3ccccc3Cl)c2N)c1 | inactive | – |
| Cc1nc2[nH]c(=S)[nH]c2c(=O)[nH]1 | inactive | – |
| Cc1ccc(/C=C/c2onc(C)c2S(=O)(=O)N2CCC(C(=O)N3CCN(C)CC3)CC2)cc1 | inactive | – |
| COc1ccc(-c2cn3cc(C)ccc3n2)cc1F | inactive | – |
| CCC(=O)c1cn(CC(=O)Nc2cccc(C)c2C)c2ccccc12 | inactive | – |
| Cc1ccc(C(=O)NC(=S)NNC(=O)CC#N)cc1 | inactive | – |
| Cc1ccc(C(=O)COC(=O)c2cc(=O)[nH]c3ccccc23)cc1 | inactive | – |
| Cc1ccc(CNCCCn2cnc(C(=O)Nc3ccc(C)c(C)c3)n2)o1 | inactive | – |
| COc1cccc(C(=O)OCC(=O)Nc2cc(C)on2)c1OC | inactive | – |
| CCNC(=O)C[C@H]1CC[C@@H]2[C@@H](COc3ccc(NC(C)=O)cc3C(=O)N2C)O1 | inactive | – |
| C/C(=N\NC(=O)c1ccccc1O)c1cccc(NC(=O)c2ccccc2)c1 | inactive | – |
| O=C(N/N=C/c1ccc(O)c(O)c1)C1CC1 | inactive | – |
| CNc1cncc(-c2ccc(O)cc2)n1 | – | AC50: > 39 µM (inactive) |
| CCc1ccccc1NC(=S)N(Cc1ccc(C(=O)O)cc1)Cc1ccc(OC)c(OC)c1 | inactive | – |
| CCOC(=O)/C(=N/Nc1ccc(Br)cc1)N1CC(C)OC(C)C1 (centres undefined) | – | AC50: 6.61 µM |
| Cc1cccc(OCCC(=O)NCC(=O)Nc2cccc(C)c2C)c1 | – | AC50: > 39 µM (inactive) |
| Cn1c(=O)[nH]c(=O)c2c1[nH]c(=S)n2CCCc1ccccc1 | inactive | – |
| COC(=O)[C@@]12CCCCN1[C@H](c1ccc(-c3ccccc3)c(OC)c1)[C@H]1C(=O)N(C)C(=O)[C@H]12 | inactive | – |

| SMILES | activity change, negative = inhibition (at 19.5 µM (top of the series)) | further results |
| --- | --- | --- |
| O=C(NC(=S)NNS(=O)(=O)c1ccccc1)c1cccnc1 | inactive | – |
| COc1cc(/C=N/NC(=O)C2(O)c3ccccc3-c3ccccc32)ccc1O | inactive | – |
| O=C(C[C@@H]1CC[C@@H]2[C@H](COC[C@@H](O)CN2C(=O)c2ccccn2)O1)NC1CCC1 | inactive | – |
| Cc1cccc(CN2CCN(c3ncccn3)CC2)c1 | inactive | – |
| O=C(C[C@H]1C[C@H]2c3cc(NC(=O)c4ccc5c(c4)OCO5)ccc3O[C@H]2[C@H](CO)O1)NCc1cccc(F)c1 | inactive | – |
| Cc1ccc(C(=O)Nc2ccc(N3CCCCC3)cc2)cc1 | inactive | – |
| Cc1ccc2nc(-c3ccc4c(c3)OCCO4)cn2c1 | – | AC50: > 39 µM (inactive) |
| COc1ccccc1C1NC(=O)NC(C)=C1C(=O)OC1CCCCC1 (centres undefined) | inactive | – |
| Cc1scc(C(=O)N2CCN(c3ccc(Cl)cc3)CC2)c1C | inactive | – |
| Cn1c(=O)[nH]c(=O)c2c1[nH]c(=S)n2Cc1ccc(Cl)cc1 | inactive | – |
| Cc1cccn2c(CN(C)C3CCCc4ccccc43)c(C(=O)N3CCOCC3)nc12 (centres undefined) | inactive | – |
| CN1c2ccc(-c3ccccc3)cc2[C@@H]2[C@@H](CCN2C(=O)CN2CCOCC2)[C@@H]1CO | – | AC50: > 39 µM (inactive) |
| CCC(=O)Nc1ccc2c(c1)OC[C@@H](C)N(C(=O)NC(C)C)C[C@@H](C)[C@@H](OC)CN(C)C2=O | inactive | – |
| Cc1[nH]c(=O)c(C#N)c2c1CCCC2 | inactive | – |
| COc1ccc(S(=O)(=O)N2CCOCC2)cc1NC(=O)COC(=O)c1[nH]c(C)c(C(C)=O)c1C | inactive | – |
| CCCSc1nc2c([nH]1)c(=O)n(C)c(=S)n2C | inactive | – |
| NC(=O)NN=C1CC2CC1C1C=CCC21 (centres undefined) | inactive | – |
| Cc1ccn(CCC(=O)NC2CC(C)(C)Cc3c2cnn3-c2ccccc2C)n1 (centres undefined) | inactive | – |
| O=c1[nH]c(/C=C\c2ccc(O)cc2)nc(O)c1[N+](=O)[O-] | inactive | – |
| O=C(CSc1nc2cc(Cl)ccc2s1)c1ccco1 | inactive | – |
| Oc1ccc(/C=N/N2CCN(c3ccccn3)CC2)cc1 | – | AC50: > 39 µM (inactive) |
| Cc1cccc(NC(=O)c2ccc(N3CCOCC3)c([N+](=O)[O-])c2)n1 | – | AC50: > 39 µM (inactive) |
| O=C(N/C(=C\c1ccc(O)cc1)C(=O)N1CCCCC1)c1ccccc1 | inactive | – |

| SMILES | activity change, negative = inhibition (at 19.5 µM (top of the series)) | further results |
| --- | --- | --- |
| CNC(=O)C[C@H]1CC[C@@H]2[C@H](COc3ccc(NS(=O)(=O)c4ccccc4C)cc3C(=O)N2C)O1 | – | activity change, negative = inhibition (at 21 µM (top of the series)): inactive |
| CCNC(=O)C[C@@H]1CC[C@H]2[C@H](COc3ccc(NC(C)=O)cc3C(=O)N2C)O1 | inactive | – |
| COc1ccc(NC(=O)c2cc(C)nc3ccccc23)c(OC)c1 | inactive | – |
| Cc1cc(N/N=C/c2ccc(O)cc2O)nc(N2CCOCC2)n1 | inactive | – |
| COc1cc([N+](=O)[O-])ccc1NC(=O)Oc1ccc(NC(C)=O)cc1 | inactive | – |
| O=C(Nc1ccc(N2CCOCC2)c(Cl)c1)c1ccc(F)cc1 | inactive | – |
| COc1cc(/C=N/n2c(-c3ccccc3)n[nH]c2=S)ccc1O | – | AC50: > 39 µM (inactive) |
| CCCNC(=O)C1CCN(S(=O)(=O)c2c(C)noc2/C=C\c2ccc(OC)cc2)CC1 | inactive | – |
| Cn1ncc(Cl)c1C(=O)N/N=C/c1cccc(OC2CSC2)c1 | inactive | – |
| CC(C)NC(=O)N1CC[C@@H]2[C@@H](CO)N(C)c3ccc(-c4ccc(F)cc4)cc3[C@@H]21 | – | AC50: > 42 µM (inactive) |
| COc1ccc(CNC(=O)C2=CC(c3ccc(C)cc3)=NS(=O)(=O)N2C)cc1 | inactive | – |
| CCCc1cc(=O)oc2c3c(cc(OCC(=O)NCCCn4ccnc4)c12)OC(C)(C)CC3 | inactive | – |
| COc1cc(OC)c(OC)cc1/C=C/c1ccnc2ccccc12 | inactive | – |
| COc1ccccc1Oc1cn[nH]c1-c1ccc(O)cc1O | inactive | – |
| CC(=O)Nc1ccc(OC(=O)Oc2ccc(NC(C)=O)cc2)cc1 | inactive | – |
| CN(C)CC(=O)N1CC[C@@H]2[C@H]1c1cc(-c3ccccc3)ccc1N(C)[C@H]2CO | – | activity change, negative = inhibition (at 21 µM (top of the series)): inactive |
| Cc1cccc(-n2c(=O)c3ccccc3n3c(=S)[nH]nc23)c1C | inactive | – |
| S=c1nc(-c2cccc(Cl)c2)[nH][nH]1 | inactive | – |
| O=C(C[C@@H]1C[C@H]2c3cc(NC(=O)Nc4ccccc4)ccc3O[C@H]2[C@H](CO)O1)NCc1ccccc1 | inactive | – |
| CCNC(=O)[C@H]1[C@H](CO)[C@H]2Cn3c(ccc(-c4ccccc4)c3=O)[C@H]2N1CC | inactive | – |

Source: PubChem BioAssay AID720512 (Broad Institute, 2013)
